Experimental data from patent US4424351A, “Pyrido[3,4-e]-as-triazines” (Egyt Gyogyszervegyeszeti Gyar, priority 1979, dated 1984).

Columns and labels:
mice [1] = experiment: analgesic effect, writhing test (acetic acid i.p.); type: in vivo; settings: for Therapeutical index (LD50/ED50), analgesic effect: LD50/ED50, writhing test, mice p.o.; for ED50: Mus musculus, mice, oral 1 h before 0.4 ml of 0.5% acetic acid i.p., dosage decreasing number of writhings by 50%, read-out: ED50 p.o. (analgesic effect)
Method: The analgesic effect of the new compounds according to the invention was investigated on mice by the so-called writhing test. […] The animals were treated orally with the compound to be tested one hour before the introduction of acetic acid. The animals belonging to the control group received vehicle only.

mice [2] = experiment: potentiation of hexobarbital-induced narcosis (method of Kaergaard et al.); type: in vivo; settings: for Therapeutical index (LD50/ED50), potentiation of hexobarbital-induced narcosis: LD50/ED50, mice p.o.; for ED50: Mus musculus, mice, oral, then 40 mg/kg hexobarbital i.v., 150% prolongation of sleeping time = positive, read-out: ED50 p.o. (potentiation of hexobarbital-induced narcosis)
Method: The hexobarbital-induced narcosis potentiating effect of the new compounds was tested by the method of Kaergaard et al. (Arch. Int. Pharmacodyn. 2, 170 /1967/) on groups consisting of 6 mice each. The animals belonging to the control group received an oral dosage of 20 ml/kg of 0.9% aqueous sodium chloride solution, whereas the other animals were treated orally with the compound to be tested. Thereafter 40 mg/kg of hexobarbital (5-/1-cyclohexenyl/-[…]) were administered intravenously into the animals. A 150% prolongation of the sleeping time, related to the average value observed in the controls, was regarded as positive response. The number of animals giving positive response was compared to the total number of the animals treated.

white mice = experiment: motility inhibiting effect (orientation reflex, eight-channel Dews apparatus); type: in vivo; settings: for Therapeutical index (LD50/ED50), motility inhibiting effect: LD50/ED50, Dews apparatus, mice p.o.; for ED50: Mus musculus, 0.5 h, white mice, oral, pre-treatment of 30 minutes, light beam interceptions, read-out: ED50 p.o. (motility inhibiting effect)
Method: The effect of the new compounds exerted on the orientation reflex was tested on white mice in an eight-channel Dews apparatus, according to the method of Borsy et al. (Arch. Int. Pharmacodyn. 124, 1-2 /1960/). The number of light beam interceptions, caused by the movement of the animals, was recorded after a pre-treatment of 30 minutes. The test groups consisted of 3 mice. The ED50 values obtained in the investigation of motility-inhibiting effect, furthermore the therapeutical indices (LD50 /ED50) calculated therefrom are listed in Table 4.

rats = experiment: antiphlogistic effect, carrageenine-induced paw swelling (method of Winter); type: in vivo; settings: Rattus norvegicus, oral, paw volume before and 3 h after 0.1 ml 1% carrageenine, read-out: Dosage exerting 30% inhibition (antiphlogistic effect)
Method: The antiphlogistic effect of the new compounds according to the invention was investigated on rats by the method of Winter (J. Pharm. Exp. […] The volume of the treated paw was measured by […] before and 3 hours after challenge. The compounds to be tested were administered orally into the animals.

in vivo = settings: mouse, mice, oral
Method: The acute toxicity of the new compounds having the general formula (I) was tested on mice. The substances to be tested were administered orally to the animals.

[3] = system: animals treated with tetrabenazine; experiment: tetrabenazine-antagonizing effect (closed palpebral fissures); type: in vivo; settings: for Therapeutical index (LD50/ED50), tetrabenazine-antagonizing effect: LD50/ED50, p.o.; for ED50: Mus musculus, oral, 30 min before 50 mg/kg tetrabenazine p.o., readings at 30, 60, 90 and 120 min summed
Method: The tetrabenzine-antagonizing effect of the new compounds was tested on groups consisting of 10 mice each. The animals belonging to the control group received an oral dosage of 20 ml/kg of 0.9% aqueous sodium chloride solution, whereas the other animals were treated orally with the compound to be tested. 30 minutes after the introduction of the active agent or the vehicle 50 mg/kg of tetrabenazine (3-isobutyl-9,10-[…]-1,2,3,4,6,7-hexahydrobenzo[a]quinolisine-2-one) were administered orally into the animals, and the animals with closed palpebral fissures were counted 30, 60, 90 and 120 minutes after the administration of tetrabenazine. The data obtained in the individual measuring times were added, and the percentage inhibition related to the controls was calculated.

| Compound | Therapeutical index (LD50/ED50), analgesic effect (mice [1]) | ED50 (mice [1]) | Therapeutical index (LD50/ED50), potentiation of hexobarbital-induced narcosis (mice [2]) | ED50 (mice [2]) | Therapeutical index (LD50/ED50), motility inhibiting effect (white mice) | ED50 (white mice) | ED30 (rats) | LD50 (in vivo) | Therapeutical index (LD50/ED50), tetrabenazine-antagonizing effect [3] | ED50 [3] |
| --- | --- | --- | --- | --- | --- | --- | --- | --- | --- | --- |
| CCC(=O)N1N=C(c2ccccc2)Nc2cnccc21 [Example 12, 3-phenyl-1-propionyl-1,4-dihydropyrido[3,4-e]-as-triazine] | above 40 | 50 mg/kg | 32.3 | 62 mg/kg | >57.4 | 35 mg/kg | 26 mg/kg | > 2000 mg/kg | – | – |
| CC(=O)N1C=NN(C(C)=O)c2ccncc21 [Example 1, 1,4-diacetyl-1,4-dihydropyrido[3,4-e]-as-triazine] | – | – | 11.4 | 25 mg/kg | – | – | 25 mg/kg | 360 mg/kg | – | – |
| CCC(=O)N1N=C(C)Nc2cnccc21 [Example 11, 3-Methyl-1-propionyl-1,4-dihydropyrido[3,4-e]-as-triazine] | – | – | 25 | 20 mg/kg | – | – | 30 mg/kg | 500 mg/kg | – | – |
| CC(=O)N1N=C(c2ccccc2)Nc2cnccc21 [Example 17, 3-phenyl-1-acetyl-1,4-dihydropyrido[3,4-e]-as-triazine] | 60.87 | 23 mg/kg | 40 | 35 mg/kg | 46.67 | 30 mg/kg | – | 1400 mg/kg | 25 | 56 mg/kg |
| CCC(=O)N1N=C(c2ccccc2)Nc2cnccc21.Cl [12 (HCl), 3-phenyl-1-propionyl-1,4-dihydro-pyrido[3,4-e]-as-triazine hydrochloride] | – | – | 200 | 10 mg/kg | 40 | 50 mg/kg | 30 mg/kg | 2000 mg/kg | 50 | 40 mg/kg |
| CCC(=O)N1C=NN(C(=O)CC)c2ccncc21 [Example 18, 1,4-dipropioyl-1,4-dihydropyrido[3,4-e]-as-triazine] | 75 | 6 mg/kg | – | – | – | – | 12 mg/kg | 450 mg/kg | – | – |
| CCCC(C)(COC(N)=O)COC(N)=O [Meprobamate, reference compound] | – | – | 4.1 | 270 mg/kg | 14.1 | 270 mg/kg | – | – | – | – |
| CN(C)CCC=C1c2ccccc2CCc2ccccc21 [Amitryptiline, reference compound] | – | – | – | – | – | – | – | – | – | 12 mg/kg |
| CCCCC1C(=O)N(c2ccccc2)N(c2ccccc2)C1=O [Phenylbutazone, reference compound] | – | 65 mg/kg | – | – | – | – | 90 mg/kg | – | – | – |
| CCCC(=O)N1N=C(c2ccccc2)Nc2cnccc21 [Example 19, 3-phenyl-1-butyryl-1,4-dihydropyrido[3,4-e]-as-triazine] | 20 | 75 mg/kg | 10 | 150 mg/kg | 16.67 | 90 mg/kg | 13 mg/kg | 1500 mg/kg | 75 | 20 mg/kg |
